Experimental data: patent US8916593B2, “Alkoxy-substituted 2-aminopyridines as ALK inhibitors” (Pfizer Inc., priority 2010, dated 2014)
Like-named read-outs stand apart in the source and are kept apart here.

What was measured:
[1] = molecular target: EML4-ALK wt v1 in NIH-3T3 cells (Homo sapiens, UniProt Q9UM73)
[2] = molecular target: T1, human recombinant wild-type ALK kinase domain (amino acids 1093-1411) (Homo sapiens, UniProt Q9UM73); experiment: ALK enzyme assay 2 (microfluidic mobility shift assay); format: biochemical;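 note: kinase reaction run 1 h at room temperature, conversion quantified by electrophoretic separation of fluorescent peptide substrate from phosphorylated product, about 15-20% turnover without inhibitor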
T1 construct: ALK kinase domain (amino acids 1093-1411); made in house
Description: The reactions were incubated for 1 h at room temperature, stopped by the addition of 0.1 M EDTA, pH 8, and the extent of reactions (˜15-20% conversion with no inhibitor) was determined after electrophoretic separation of the fluorescently labeled peptide substrate and phosphorylated product on an LabChip EZ Reader II (Caliper Life Sciences, Hopkinton, Mass.).

ALK enzyme = molecular target: T2, ALK enzyme (Homo sapiens, UniProt Q9UM73); experiment: ALK enzymatic activity assay 1; format: biochemical
T2 construct: purchased Invitrogen PV4185
Description: ALK Enzymatic Activity Assay 1
Compounds were added at a final concentration of 1% DMSO in half-log dilutions, starting at 20 μM final concentration. The reactions were initiated by the addition of 10 μL of peptide/ATP mix to 10 μL enzyme and 2 μL of compound in 384-well plate. […] On the 12-sipper chip, substrate and phosphorylated product were separated with an upstream voltage of −2650 V, a downstream voltage of −500 V, and a screen pressure of −1.5 psi. The relative peak heights of substrate and product were measured and ratios were calculated using HTS Well Analyzer Software version 5.2.43 from the manufacturer.

cMet enzyme = molecular target: T3, cMet enzyme (Homo sapiens, UniProt P08581); experiment: cMet enzymatic activity assay; format: biochemical; settings: purified cMet enzyme 7.5 nM, ATP 17 μM (Km)
T3 construct: RTC Lot#032006
Description: cMet Enzymatic Activity Assay
Compounds were added at a final concentration of 2% DMSO in half-log dilutions, starting at 20 μM final concentration. The reactions were initiated by addition of 10 μL of peptide/ATP mix to 10 μL enzyme and 5 μL of compound in 384-well plate. […] Substrate and phosphorylated product were separated with an upstream voltage of −2650 V, a downstream voltage of −500V, and a screen pressure of −1.5 psi. The relative peak heights of substrate and product were measured and ratios were calculated using HTS Well Analyzer Software version 5.2.43 from the manufacturer.

T3 sequence (P08581 25-1390): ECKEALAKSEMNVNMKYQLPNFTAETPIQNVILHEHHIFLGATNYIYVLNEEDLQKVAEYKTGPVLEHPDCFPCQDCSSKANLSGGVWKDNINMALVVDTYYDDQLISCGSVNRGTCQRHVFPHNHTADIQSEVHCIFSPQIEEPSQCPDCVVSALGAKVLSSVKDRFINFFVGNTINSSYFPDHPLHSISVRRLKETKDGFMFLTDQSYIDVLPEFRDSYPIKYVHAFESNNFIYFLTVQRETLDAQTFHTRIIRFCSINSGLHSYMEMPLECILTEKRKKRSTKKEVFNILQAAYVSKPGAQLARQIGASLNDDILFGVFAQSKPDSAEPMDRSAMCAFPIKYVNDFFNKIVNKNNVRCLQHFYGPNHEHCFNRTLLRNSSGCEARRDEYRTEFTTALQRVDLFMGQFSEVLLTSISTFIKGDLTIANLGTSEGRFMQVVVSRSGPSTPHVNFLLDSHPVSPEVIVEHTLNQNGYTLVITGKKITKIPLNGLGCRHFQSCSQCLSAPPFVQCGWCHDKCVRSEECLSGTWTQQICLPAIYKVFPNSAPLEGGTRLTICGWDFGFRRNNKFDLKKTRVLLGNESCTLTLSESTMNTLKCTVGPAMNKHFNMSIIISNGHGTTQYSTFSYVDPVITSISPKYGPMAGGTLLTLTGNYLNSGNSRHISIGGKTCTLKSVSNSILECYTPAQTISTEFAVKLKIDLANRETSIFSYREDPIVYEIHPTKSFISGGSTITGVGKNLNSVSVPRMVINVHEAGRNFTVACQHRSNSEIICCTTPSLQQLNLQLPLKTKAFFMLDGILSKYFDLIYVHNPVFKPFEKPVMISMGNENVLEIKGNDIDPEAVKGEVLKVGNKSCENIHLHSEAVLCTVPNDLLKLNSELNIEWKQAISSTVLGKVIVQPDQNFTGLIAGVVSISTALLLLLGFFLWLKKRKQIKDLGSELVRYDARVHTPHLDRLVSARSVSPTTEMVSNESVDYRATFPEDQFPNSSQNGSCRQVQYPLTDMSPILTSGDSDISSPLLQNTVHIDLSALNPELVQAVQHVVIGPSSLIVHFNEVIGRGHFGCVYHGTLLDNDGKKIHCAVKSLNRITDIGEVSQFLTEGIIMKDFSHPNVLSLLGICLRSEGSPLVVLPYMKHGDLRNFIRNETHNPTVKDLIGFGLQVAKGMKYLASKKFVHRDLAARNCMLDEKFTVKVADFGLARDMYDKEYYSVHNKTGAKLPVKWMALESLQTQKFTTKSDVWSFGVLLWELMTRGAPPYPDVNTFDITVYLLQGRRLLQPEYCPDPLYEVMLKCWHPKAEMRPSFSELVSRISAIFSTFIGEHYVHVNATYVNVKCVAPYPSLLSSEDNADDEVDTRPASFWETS
Chain of EML4-ALK wt v1 in NIH-3T3 cells (Q9UM73 with tags, fused parts or gaps): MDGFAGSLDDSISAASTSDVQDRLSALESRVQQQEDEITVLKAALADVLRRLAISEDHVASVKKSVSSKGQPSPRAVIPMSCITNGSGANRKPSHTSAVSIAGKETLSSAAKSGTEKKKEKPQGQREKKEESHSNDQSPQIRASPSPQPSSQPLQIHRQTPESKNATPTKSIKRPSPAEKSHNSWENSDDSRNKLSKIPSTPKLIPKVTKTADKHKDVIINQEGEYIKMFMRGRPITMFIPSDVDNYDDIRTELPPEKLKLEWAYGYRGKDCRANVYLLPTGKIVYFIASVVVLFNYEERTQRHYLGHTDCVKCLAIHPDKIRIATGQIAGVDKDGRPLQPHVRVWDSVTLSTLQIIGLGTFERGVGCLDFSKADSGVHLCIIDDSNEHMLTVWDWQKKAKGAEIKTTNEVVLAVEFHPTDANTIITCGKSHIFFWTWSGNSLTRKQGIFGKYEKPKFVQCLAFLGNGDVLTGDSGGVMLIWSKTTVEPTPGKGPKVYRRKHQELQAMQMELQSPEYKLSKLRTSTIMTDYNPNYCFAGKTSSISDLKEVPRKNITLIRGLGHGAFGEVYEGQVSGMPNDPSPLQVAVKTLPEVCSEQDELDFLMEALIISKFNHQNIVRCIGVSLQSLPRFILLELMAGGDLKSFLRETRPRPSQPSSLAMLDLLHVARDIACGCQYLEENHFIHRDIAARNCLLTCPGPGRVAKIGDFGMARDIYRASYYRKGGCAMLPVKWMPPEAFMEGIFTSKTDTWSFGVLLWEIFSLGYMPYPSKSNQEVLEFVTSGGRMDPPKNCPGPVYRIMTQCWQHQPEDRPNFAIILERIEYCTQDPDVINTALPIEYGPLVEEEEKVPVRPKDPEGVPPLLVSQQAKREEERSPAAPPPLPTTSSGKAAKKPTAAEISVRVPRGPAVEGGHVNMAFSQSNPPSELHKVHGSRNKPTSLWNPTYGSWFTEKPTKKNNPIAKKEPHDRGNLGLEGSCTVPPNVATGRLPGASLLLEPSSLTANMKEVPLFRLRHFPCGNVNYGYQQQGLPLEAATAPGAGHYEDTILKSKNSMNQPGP
T2 sequence (Q9UM73 19-1620): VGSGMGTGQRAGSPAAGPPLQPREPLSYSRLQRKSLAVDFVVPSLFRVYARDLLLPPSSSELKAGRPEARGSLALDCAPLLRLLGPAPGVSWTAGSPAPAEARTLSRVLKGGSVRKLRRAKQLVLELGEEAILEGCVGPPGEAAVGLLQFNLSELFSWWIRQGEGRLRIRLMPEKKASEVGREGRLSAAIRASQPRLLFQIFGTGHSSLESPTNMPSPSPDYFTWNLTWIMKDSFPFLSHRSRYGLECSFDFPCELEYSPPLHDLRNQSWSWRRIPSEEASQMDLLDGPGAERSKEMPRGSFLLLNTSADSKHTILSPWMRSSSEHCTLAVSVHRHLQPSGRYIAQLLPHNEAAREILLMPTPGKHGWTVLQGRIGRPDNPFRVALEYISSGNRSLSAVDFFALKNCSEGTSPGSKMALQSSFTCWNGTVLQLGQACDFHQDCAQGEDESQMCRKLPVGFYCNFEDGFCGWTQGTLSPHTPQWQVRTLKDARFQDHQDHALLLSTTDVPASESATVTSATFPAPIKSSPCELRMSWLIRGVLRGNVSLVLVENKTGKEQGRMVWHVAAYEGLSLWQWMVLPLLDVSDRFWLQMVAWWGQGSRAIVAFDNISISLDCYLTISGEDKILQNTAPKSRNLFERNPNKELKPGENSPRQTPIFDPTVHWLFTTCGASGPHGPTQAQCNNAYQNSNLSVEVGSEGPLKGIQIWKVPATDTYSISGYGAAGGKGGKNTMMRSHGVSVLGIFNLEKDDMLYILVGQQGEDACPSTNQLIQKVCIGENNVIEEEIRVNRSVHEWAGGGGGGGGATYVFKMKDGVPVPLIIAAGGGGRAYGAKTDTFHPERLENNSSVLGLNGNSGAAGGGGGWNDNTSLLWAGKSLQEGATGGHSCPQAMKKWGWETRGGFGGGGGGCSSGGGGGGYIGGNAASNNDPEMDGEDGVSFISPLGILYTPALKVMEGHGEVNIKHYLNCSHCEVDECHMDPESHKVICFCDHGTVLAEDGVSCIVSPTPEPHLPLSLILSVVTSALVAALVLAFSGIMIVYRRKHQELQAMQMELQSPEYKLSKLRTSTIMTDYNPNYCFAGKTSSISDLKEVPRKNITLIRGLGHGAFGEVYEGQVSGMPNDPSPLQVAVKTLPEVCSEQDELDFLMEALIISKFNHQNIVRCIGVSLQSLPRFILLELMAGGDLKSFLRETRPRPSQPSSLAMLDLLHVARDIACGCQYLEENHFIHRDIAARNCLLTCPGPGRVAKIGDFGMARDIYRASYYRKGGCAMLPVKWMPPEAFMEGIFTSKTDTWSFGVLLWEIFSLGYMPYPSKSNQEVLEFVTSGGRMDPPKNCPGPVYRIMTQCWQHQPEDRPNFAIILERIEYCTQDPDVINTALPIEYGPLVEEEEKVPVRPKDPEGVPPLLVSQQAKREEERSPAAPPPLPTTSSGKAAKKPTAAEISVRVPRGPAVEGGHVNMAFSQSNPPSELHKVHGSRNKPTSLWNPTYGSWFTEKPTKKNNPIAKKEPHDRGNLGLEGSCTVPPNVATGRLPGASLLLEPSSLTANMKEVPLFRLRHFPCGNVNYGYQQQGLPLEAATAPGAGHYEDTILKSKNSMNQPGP
T1 sequence (Q9UM73 1093-1411): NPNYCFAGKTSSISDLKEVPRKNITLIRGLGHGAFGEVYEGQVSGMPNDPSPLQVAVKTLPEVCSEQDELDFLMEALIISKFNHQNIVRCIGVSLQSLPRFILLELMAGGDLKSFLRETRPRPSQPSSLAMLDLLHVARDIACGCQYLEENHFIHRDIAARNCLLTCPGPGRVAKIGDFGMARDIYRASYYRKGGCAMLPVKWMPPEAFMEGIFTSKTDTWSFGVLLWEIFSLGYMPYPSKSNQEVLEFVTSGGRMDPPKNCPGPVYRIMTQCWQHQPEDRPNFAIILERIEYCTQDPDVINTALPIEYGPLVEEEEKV

IC50 [1] [nM]	Ki [2] [nM]	IC50 (ALK enzyme) [nM]	IC50 (cMet enzyme) [nM]	IC50 ([1]; read-out: ELISA assay for WT EML4-ALK (IC50), cellular phospho-ALK (Tyr1604), NIH-3T3 EML4-ALK wt v1 cells, 1 hour) [nM]	IC50 (ALK enzyme; purified ALK enzyme 10 nM, ATP 25 μM (Km)) [nM]	SMILES
144	2.9	61.4	> 18800			C=Cn1nnc(C)c1-c1cnc(N)c(OC(C)c2cc(F)ccc2OC)c1 (stereo not shown) [Example 1, 3-[1-(5-Fluoro-2-methoxyphenyl)ethoxy]-5-(4-methyl-1-vinyl-1H-1,2,3-triazol-5-yl)pyridin-2-amine]
904	16	177	> 20000			COc1ccc(F)cc1C(C)Oc1cc(-c2cccn(C)c2=O)cnc1N (stereo not shown) [Example 15, 6′-amino-5′-[1-(5-fluoro-2-methoxyphenyl)ethoxy]-1-methyl-3,3′-bipyridin-2(1H)-one]
58.6	0.922	15.7	5590			COc1ncc(F)cc1C(C)Oc1cc(-c2c[nH]nc2C)cnc1N (stereo not shown) [Example 41, 3-[1-(5-fluoro-2-methoxypyridin-3-yl)ethoxy]-5-(3-methyl-1H-pyrazol-4-yl)pyridin-2-amine]
263	2.05	58.1	> 15900			CC(Oc1cc(-c2ccnn2C)cnc1N)c1cc(F)cc2scnc12 (stereo not shown) [Example 42, 3-[1-(6-fluoro-1,3-benzothiazol-4-yl)ethoxy]-5-(1-methyl-1H-pyrazol-5-yl)pyridin-2-amine]
302	3.8	71.1	> 17800			COc1ncc(F)cc1[C@@H](C)Oc1cc(-c2ccnn2C)cnc1N [Example 34, 3-[(1R)-1-(5-fluoro-2-methoxypyridin-3-yl)ethoxy]-5-(1-methyl-1H-pyrazol-5-yl)pyridin-2-amine]
33	0.536	44.9	10200			COc1ccc(F)cc1C(C)Oc1cc(-c2c(C)nn(C)c2C)cnc1N (stereo not shown) [Example 7, 3-[1-(5-fluoro-2-methoxyphenyl)ethoxy]-5-(1,3,5-trimethyl-1H-pyrazol-4-yl)pyridin-2-amine]
14.5	1.1	73.3	10400			Cc1n[nH]c(C)c1-c1cnc(N)c(OC(C)c2cc(F)ccc2-n2cccn2)c1 (stereo not shown) [Example 52, 5-(3,5-dimethyl-1H-pyrazol-4-yl)-3-{1-[5-fluoro-2-(1H-pyrazol-1-yl)phenyl]-ethoxy}pyridin-2-amine]
147	1.55	70.3	8090			CC(Oc1cc(-c2ccnn2C)cnc1N)c1cc(F)ccc1-n1cccn1 (stereo not shown) [Example 37, 3-{1-[5-fluoro-2-(1H-pyrazol-1-yl)phenyl]-ethoxy}-5-(1-methyl-1H-pyrazol-5-yl)pyridin-2-amine]
245	6.3	52.2	> 20000			COc1ccc(F)cc1C(C)Oc1cc(-c2ccnn2CCO)cnc1N (stereo not shown) [Example 11, 2-(5-{6-amino-5-[1-(5-fluoro-2-methoxyphenyl)ethoxy]-pyridin-3-yl}-1H-pyrazol-1-yl)ethanol]
	45		> 19100	1080	271	CC(Oc1cc(-c2cn(C)cn2)cnc1N)c1cc(F)ccc1Cl (stereo not shown) [Example 23, 3-[1-(2-chloro-5-fluorophenyl)-ethoxy]-5-(1-methyMH-imidazol-4-yl)pyridin-2-amine]
194	2.1	70.6	8420			COc1ccc(F)cc1C(C)Oc1cc(-c2cnn(C)c2CO)cnc1N (stereo not shown) [Example 12, (4-{6-amino-5-[1-(5-fluoro-2-methoxyphenyl)ethoxy]-pyridin-3-yl}-1-methyl-1H-pyrazol-5-yl)methanol]
245	5.4	58.7	> 20000			COc1ccc(F)cc1C(C)Oc1nc(-c2cn(C)c(C)n2)cnc1N (stereo not shown) [Example 57, 5-(1,2-dimethyl-1H-imidazol-4-yl)-3-[1-(5-fluoro-2-methoxyphenyl)ethoxy]pyrazin-2-amine]
106	1.57	75.6	4160			Cc1n[nH]cc1-c1cnc(N)c(OC(C)c2cc(F)ccc2Cl)c1 (stereo not shown) [Example 45, 3-[1-(2-chloro-5-fluorophenyl)ethoxy]-5-(3-methyl-1H-pyrazol-4-yl)pyridin-2-amine]
591	5.5	132	> 20000			COc1ccc(F)cc1C(C)Oc1cc(-c2ncsc2CO)cnc1N (stereo not shown) [Example 13, (4-{6-amino-5-[1-(5-fluoro-2-methoxyphenyl)ethoxy]-pyridin-3-yl}-1,3-thiazol-5-yl)methanol]
72.4	1.93	51.7	7610			COc1ccc(F)cc1C(C)Oc1cc(-c2cncc(S(C)(=O)=O)c2)cnc1N (stereo not shown) [Example 4, 5-[1-(5-fluoro-2-methoxyphenyl)ethoxy]-5′-(methylsulfonyl)-3,3′-bipyridin-6-amine]
4.54	< 0.313	24.1	4300			COc1ccc(F)cc1[C@@H](C)Oc1cc(-c2c(C)nn(CC(O)CO)c2C)cnc1N (stereo partly drawn) [Example 26, 3-(4-{6-amino-5-[(1R)-1-(5-fluoro-2-methoxyphenyl)-ethoxy]pyridin-3-yl}-3,5-dimethyl-1H-pyrazol-1-yl)propane-1,2-diol]
